# Assay results taken from US9399631B2, “Polyphenol proteasome inhibitors, synthesis, and methods of use” (UNIVERSITY OF SOUTH FLORIDA, priority 2003, dated 2016).
# pIC50: −log10 of the molar value. Where a SMILES comes first, the peptide text is derived from it. [ ]: non-standard residue; d: D form. Nle = CCCC[C@H](N)C(=O)O
# How the values were obtained:
# LNCaP cells [1] = assay: Soft agar colony formation assay; format: cell-based, human; conditions: 50 μM, 14 day-incubation
# Protocol: Soft Agar Assay. The soft agar assay was performed according to Smith et al. (Smith, D. M. et al. Mol Med, 2002, 8:382-392) with a few modifications. In brief, in a six-well plate, a bottom feeder layer (0.6% agar) was prepared with DMEM media containing 10% fetal bovine serum, 100 units/ml penicillin, and 100 μg/ml streptomycin. A top layer (0.3% agar) was prepared with DMEM and the same media as described above but containing 2×10^4 prostate cancer LNCaP cells and indicated analogs or DMSO as a control. Plates were incubated at 37° C. in 5% CO2 in a humidified incubator for two weeks. MTT (1 mg/ml) was added to each well and incubated overnight to allow complete formation of purple formazan crystals. The plates were then scanned and photographed, and the number of colonies was quantified by QUANTITY ONE v.4.0.3 software (Bio-Rad, Hercules, Calif.).
# The […] effects of several GTP analogs were investigated with a soft agar assay that measures the transforming activity of human tumor cells. LNCaP cells were plated in soft agar (see Materials and Methods) along with 50 μM of GTP-1, -2, -3, (−)-EGCG (as a positive control; Smith, D. M. et al. Mol Med, 2002, 8:382-392, 2002), or the solvent (as a negative control), followed by a 14 day-incubation to allow for colony formation (FIGS. 12A and 12B).
# In a second experiment, LNCaP cells were plated in soft agar along with 10 μM of each indicated GTP or solvent (H2O), followed by a 14 day-incubation to allow for colony formation (FIG. 21A). […] Colonies were quantified with an automated counter and presented as mean values from triplicate independent experiments. Error bars denote standard deviations.
# purified 20S proteasome [2] = target: T1, purified 20S proteasome (UniProt G1T4Q9); assay: Inhibition of chymotrypsin-like activity of purified 20S proteasome (source not stated); format: biochemical; conditions: chymotrypsin-like activity of purified 20S proteasome
# T1 construct: IC50; other: chymotrypsin-like activity of purified 20S proteasome
# Protocol: (§1) Inhibition of purified 20S proteasome activity by natural or synthetic GTPs. Purified prokaryotic (0.5 μg) or eukaryotic (0.02 μg) 20S proteasome was incubated with 20 μM fluorogenic peptide substrate, Suc-Leu-Leu-Val-Tyr-AMC for 30 min at 37° C. in […] of assay buffer (50 mM Tris-HCl, pH 7.5), with or without a natural or synthetic tea polyphenol. After incubation, production of hydrolyzed 7-amido-4-methyl-coumarin (AMC) groups was measured using a multi-well plate VERSAFLUOR Fluorometer with an excitation filter of 380 nm and an emission filter of 460 nm (BIO-RAD), and a multi-well plate reader Wallac 1420 VICTORTM^2 with an excitation filter of 355 nm and an emission filter of 460 nm (EG&G WALLAC).
# [3] = target: T2, 20S eukaryotic proteasome (Oryctolagus cuniculus, UniProt G1T4Q9); assay: Inhibition of chymotrypsin-like activity of purified eukaryotic 20S proteasome (Suc-Leu-Leu-Val-Tyr-AMC); format: biochemical, rabbit
# T2 construct: purchased BOSTON BIOCHEM (Cambridge, Mass.)
# T2 sequence (G1T4Q9 1-263): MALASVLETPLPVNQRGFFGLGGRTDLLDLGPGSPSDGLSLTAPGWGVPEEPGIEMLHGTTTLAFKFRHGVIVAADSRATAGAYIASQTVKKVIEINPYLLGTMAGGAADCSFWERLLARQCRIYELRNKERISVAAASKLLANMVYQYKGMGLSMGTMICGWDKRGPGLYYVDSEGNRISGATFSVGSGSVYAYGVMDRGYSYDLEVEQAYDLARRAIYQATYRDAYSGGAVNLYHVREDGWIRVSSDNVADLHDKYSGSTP
# Protocol: Materials. Highly purified tea polyphenols (−)-EGCG (>95%), (−)-GCG (>98%), (−)-ECG (>98%), (−)-CG (>98%), fetal calf serum, propidium iodide, 3-[4,5-dimethylthiazol-2-yl]-2,5-diphenyltetrazolium bromide (MTT), RNase A, and DMSO were purchased from Sigma (St. Louis, Mo.). (+)-EGCG, benzyl-protected-(+)-EGCG, (+)-GCG, (−)-EGCG-amide, and (+)-EGCG-amide were prepared by enantioselective synthesis (see below). Purified 20S eukaryotic proteasome from rabbit was purchased from BOSTON BIOCHEM (Cambridge, Mass.). Purified 20S prokaryotic proteasome (Methanosarcina thermophile, Recombinant, E. coli) was purchased from CALBIOCHEM (La Jolla, Calif.). Fluorogenic peptide substrates Suc-Leu-Leu-Val-Tyr-AMC (for the proteasomal chymotrypsin-like activity) was obtained from Calbiochem (La Jolla, Calif.). RPMI 1640 medium, Dulbecco's modified Eagle's medium, MEM non-essential amino acids solution, MEM-sodium pyruvate solution, penicillin, and streptomycin were from INVITROGEN (Carlsbad, Calif.). Monoclonal antibody to p27^Kip was purchased from PHARMINGEN (San Diego, Calif.); polyclonal antibodies to IκB-α, Bax and actin, and monoclonal antibody to ubiquitin were from SANTA CRUZ Biotechnology Inc. (Santa Cruz, Calif.).
# as §1
# Purified prokaryotic (0.5 μg) or eukaryotic (0.02 μg) 20S proteasome was incubated with 20 μM fluorogenic peptide substrate, Suc-Leu-Leu-Val-Tyr-AMC for 30 minutes at 37° C. in 100 μl of assay buffer ([…] Tris-HCl, pH 7.5), with or without a natural or synthetic tea polyphenol. After incubation, production of hydrolyzed AMC groups was measured using a multi-well plate VERSAFLUOR Fluorometer with an excitation filter of 380 nm and an emission filter of 460 nm.
# (−)-EGCG at 1 μM was incubated with eukaryotic 20S proteasome (0.02 μg) and suc-LLVY-AMC (20 μM) for the times indicated in FIG. 7. The chymotrypsin activity was measured and graphed in FIG. 7. Values are means from 4 independent experiments, and error bars represent standard deviations.
# In the second experiment (−)-EGCG at 1 μM was pre-incubated with (SDS-pre) or without 0.01% SDS (no SDS) for 1 hour, followed by addition of eukaryotic 20S proteasome (0.02 μg) and suc-LLVY-AMC (20 μM). “SDS-post” represents the same treatment as “no SDS” except 0.01% SDS was added 1 hour after addition of the proteasome, (−)-EGCG and the substrate. AMC liberation was measured by fluorescence at each indicated time point and the percentage of chymotrypsin activity was determined. Values are means from 4 independent experiments, and error bars represent standard deviations.
# purified 20S proteasome [4] = target: purified 20S proteasome (UniProt Q9P992); assay: Inhibition of chymotrypsin-like activity of purified 20S proteasome (source not stated); format: biochemical; design: other: 1 μM; other: 10 μM
# Protocol: as §1
# VA-13 cells = assay: Western blot of p27 in SV40-transformed VA-13 fibroblasts; format: cell-based, human; conditions: 25 μM, 12 hours
# Protocol: (§2) Cell Culture, Cell Extract Preparation, and Western Blot Assay. Human leukemia Jurkat T and prostate cancer LNCaP cells were cultured in RPMI 1640 medium supplemented with 10% fetal calf serum, 100 units/ml of penicillin, and 100 μg/ml streptomycin. Human immortalized, non-transformed NK cells (YT cell line) (38) were cultured in RPMI 1640 supplemented with 1 mM MEM sodium pyruvate solution, 0.1 mM MEM non-essential amino acids solution, 10% fetal calf serum. 100 units/ml penicillin, and 100 μg/ml streptomycin. Normal (WI-38) and simian virus 40 (SV40)-transformed (VA-13) human fibroblasts were grown in Dulbecco's modified Eagle's medium supplemented with 10% fetal calf serum, 100 units/ml of penicillin and 100 μg/ml of streptomycin. All cells were maintained at 37° C. in a humidified incubator with an atmosphere of 5% CO2. A whole cell extract was prepared in accordance with An et al. (An, B. et al. Cell Death Differ, 1998, 5:1062-75). Briefly, cells were harvested, washed with PBS twice, and homogenized in a lysis buffer [50 mM Tris-HCl (pH 8.0), 5 mM EDTA, 150 mM NaCl, 0.5% NP-40, 0.5 mM phenylmethylsulfonyl fluoride, and 0.5 mM dithiothreitol] for 30 min at 4° C. Afterwards, lysates were centrifuged at 12,000×g for 15 min at 4° C., and the supernatants were collected as whole cell extracts. Equal amounts of protein extract (60 μg) were resolved by SDS-polyacrylamide gel electrophoresis and transferred to a nitrocellulose membrane using a Semi-Dry Transfer system (BIO-RAD, Hercules, Calif.). Jurkat T, LNCaP, or DU-145 cells were treated with various concentrations of synthetic or natural tea polyphenols for indicted hours. The enhanced chemiluminescence (ECL) Western blot analysis was then performed using specific antibodies to the proteins of interest (p^27kip, IκB-α, PARP, Bax or actin). The ratio of p27 or IκB-α to the corresponding actin was determined by scanning intensities of the protein bands.
# Normal WI-38 and SV40-transformed VA-13 cell lines were treated with 25 μM of (−)-EGCG, (−)-EGCG-amide, (+)-EGCG, (+)-EGCG-amide, or GTP-1 for either 12 hours or 36 hours.
# LNCaP cells [5] = assay: Western blot of proteasome target proteins in LNCaP cells; format: cell-based, human; conditions: 50 μM, 3 to 12 hours
# Protocol: as §2
# To investigate whether (−)-EGCG-amide and (+)-EGCG-amide inhibit intact tumor cell proteasome activity, human prostate cancer LNCaP cells were treated with 25 μM of (−)- or (+)-EGCG-amide for up to 9 hours, followed by measurement of p27, IκB-α and Bax, three well-known proteasome target proteins (Pagano, M. et al. Science, 1995, 269:682-685; An, B. et al. Cell Death Differ, 1998, 5:1062-75; Sun, J. et al. Cancer Res, 2001, 61:1280-1284; Palombella, V. J. et al. Cell, 1994, 78:773-785; Thompson, J. E. et al. Cell, 1995, 80:573-582; Perkins, N. D. Trends Biochem Sci, 2000, 25:434-440; Chang, Y. C. et al. Cell Growth Differ, 1998, 9:79-84; Li, B. and Dou, Q. P. Proc Natl Acad Sci USA, 2000, 97:3850-3855; Nam, S. et al. Cancer Epidemiol Biomarkers Prey, 2001, 10:1083-1088). In this experiment (−)-EGCG and (+)-EGCG were used as positive controls.
# Having determined that the synthetic GTP-1 to −5 analogs are able to inhibit the proteasomal chymotrypsin-like activity in vitro (FIG. 8), these compounds were investigated for their potency in inhibiting intact tumor cellular proteasome activity. To do so, human prostate cancer LNCaP cells were treated with one of these compounds for the indicated hours, followed by measuring levels of proteasome target proteins, p27, IκB-α, and Bax, and polyubiquitinated proteins.
# Chain of purified 20S proteasome (UniProt Q9P992) (Q9P992 whole entry): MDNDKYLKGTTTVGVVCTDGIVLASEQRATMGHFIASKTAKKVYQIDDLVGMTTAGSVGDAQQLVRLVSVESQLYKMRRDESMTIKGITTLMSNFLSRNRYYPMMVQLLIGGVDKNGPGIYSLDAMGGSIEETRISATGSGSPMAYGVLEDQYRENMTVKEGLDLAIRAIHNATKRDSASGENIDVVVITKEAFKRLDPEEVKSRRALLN
SMILES,colony formation (LNCaP transformation capability) (LNCaP cells [1]),pIC50 (purified 20S proteasome [2]),levels of polyubiquitinated proteins (LNCaP cells [5]),"levels of proteasome target proteins (p27, IκB-α) (LNCaP cells [5])",further results
O=C(N[C@H]1CCCC[C@H]1NC(=O)c1cc(O)c(O)c(O)c1)c1cc(O)c(O)c(O)c1 [GTP-2],completely blocked LNCaP transformation capability,5.60,–,–,–
O=c1c(-c2ccc(O)cc2)coc2cc(O)cc(O)c12 [genistein],–,–,–,–,pIC50 ([3]; chymotrypsin-like activity of purified 20S proteasome): 4.59
"CCCC[C@@H](C=O)NC(=O)[C@H](CC(C)C)NC(=O)[C@H](CC(C)C)NC(C)=O [LLnL, reference compound] (Ac-Leu-Leu-[Nle]-aldehyde)",–,–,–,–,inhibition of proteasomal activity (purified 20S proteasome [4]; 1 μM): 20%; inhibition of proteasomal activity (purified 20S proteasome [4]; 10 μM): 70%
O=C(O[C@@H]1Cc2c(O)cc(O)cc2O[C@@H]1c1ccc(O)c(O)c1)c1cc(O)c(O)c(O)c1 [(−)-ECG],–,–,–,–,"pIC50 ([3]; chymotrypsin-like activity, rabbit 20S proteasome): 6.15"
O=C(O[C@H]1CCCC[C@H]1OC(=O)c1cc(O)c(O)c(O)c1)c1cc(O)c(O)c(O)c1 [GTP-1],completely blocked LNCaP transformation capability,5.72,caused accumulation of polyubiquitinated proteins,"increased levels of p27, IκB-α, and Bax proteins at as early as 3 hours",levels of p27 protein (VA-13 cells): significantly increased levels of p27 protein
O=C(N[C@H]1CCCC[C@@H]1NC(=O)c1cc(O)c(O)c(O)c1)c1cc(O)c(O)c(O)c1 [GTP-3],completely blocked LNCaP transformation capability,5.82,"greatly increased levels of p27, IκB-α, and ubiquitinated proteins","greatly increased levels of p27, IκB-α, and ubiquitinated proteins",levels of Bax protein (LNCaP cells [5]): transiently increased levels of Bax protein
